Source: patent US20230210984A1, “ADOPTIVE IMMUNOTHERAPY” (The Council of the Queensland Institute of Medical Research, priority 2019, published 2023)
pIC50: −log10 of the molar value.

Tests used:
[1] = system: SNU719 gastric cancer xenograft; test: SNU719 xenograft, anti-PD1 and allogenic EBV-specific T cells in vivo; design: species or system NOD/SCID mice
Source text: FIG. 6: Impact of PD1 inhibition on therapeutic efficacy of allogeneic EBV-specific cytotoxic T cells in vivo. (A) Heat-map representing gene signature of 326 genes observed RNA isolated from in the tumour infiltrating (TILs) CD8+ cells performed using NanoString Immune function panel. The TILS were isolated from SNU719 derived tumour xenograft from six independent mice (LT5-10) after 5 days post a single dose of TI_001 treatment when the tumour size reached 40 mm^2. The gene expression observed in TILS was compared to unstimulated (LT11) and EBV-pepmix stimulated (LT12). (B) Statistical representation comparing the (i) percentage of CD3+CD8+ population; (ii) percentage of CD8+PD1+ population; (iii) percentage of CD8+LAG3+ population; and (iv) percentage of CD8+ TIM3+ population of viable TILS (described in (A)) and compared to unstimulated T cells (T cell therapy). Error bars represent the ±SEM from three independent experiments. P-values were calculated using one-way ANOVA. Statistical representation of SNU719 derived xenograft indicating (C) tumour growth; (D) tumour weight (in gms) at ethical limit of tumour growth; (E) percent survival post T cell, anti-PD1 and combination of T cell and anti-PD1 therapy observed in respective treatment groups compared to mock (PBS) treated control group. The statistical significance of data of tumour weight was analysed by one-way ANOVA. The mice survival was monitored over the indicated period of time and the statistical significance of data was analysed by log-rank test: ns not significant, **p<0.01, ***p<0.001, and ****p<0.0001.
A total of 12-24 female NOD/SCID mice (depending on the experiment) of 7-8 weeks old were used in this study. The mice were subjected to irradiation with 0.8 Gy cobalt-60 and after 4 hours, were subcutaneously injected with 5×10^6 cells of respective EBV-associated cancer cells with a 29-gauge needle. The mice were monitored for tumour growth, weight and body score thrice weekly. Once the tumour was palpable, the mice were randomised into respective groups and were treated with respective dosage of PBS or 20×10^6 tumour HLA matched allogenic EBV-specific T-cells. The tumour size in these mice were measured thrice weekly using the Vernier Calipers. To calculate tumour area the following formula was used: tumour area=B*S where B=largest tumour measurement and S=the smallest, based on two-dimensional caliper measurements as previously described.
Based on these observations, we hypothesized that a combination of checkpoint inhibitor and T cell therapy may offer better therapeutic benefit against EBV-associated tumours.

[2] = system: EBV-associated cell lines (nasopharyngeal and gastric cancer cell lines); test: MTS cell viability assay, IC50 of inhibitors; type: cell-based
Experimental: FIG. 9: Determining the IC50 value of MEK1/2 inhibitors. Representation of the cell viability performed using MTS assay after the indicated cell lines were incubated with 0.1 μM-5 μM of selumatinib (left panel) and trametinib (right panel) for 48 hours. The data are represented as the mean±SD from three independent experiments.
FIG. 14: Determining the IC50 value of JQ1 inhibitors. Representation of the cell viability performed using MTS assay after the indicated cell lines were incubated with 0.5 μM-10 μM of JQ1 for 48 hours. The data are represented as the mean±SD from three independent experiments.
Cell viability assay was performed using the CellTiter 96® AQueous one cell viability assay reagent (Promega, WI, USA) for three biological replicates per EBV-associated cancer cell lines in triplicate. Briefly, the cancer cells (target cells) were plated at a density of 5000 cells per well in an overall media volume of 200 μL on a 96-well tissue-culture plate (BD Falcon™). The effector AdE1-LMPpoly transfected T cells were freshly thawed in RPMI-1640 with 10% FCS and 120 IU/mL of recombinant IL-2 at 37° C. and […]. Post 24 hrs of plating and incubation at 37° C. and […], the effector T cells were mixed to the target cells at a gradient ratio of effector to target (E:T) of 5:1-100:1. The exact number of T cells (To) used per E:T ratio (ET) was independently used as control alongside PBS treated target cells (Es) and sole media (M0). After 24 hrs of incubation at 37° C. and […], MTS was added to each well (1:100 dilution in media) and was incubated for 1 hour following which the plate was centrifuged at 1,200×g at room temperature for 5 min and absorbance of the mixture at an optical density of 490 nm was measured via a microplate reader. The relative cell viability was calculated using the following formula: […]
To determine the upregulation of MAPK pathway in EBV-associated solid cancers, we first identified the IC50 value of MEK1/2 inhibitors (AZD6244 or selumetanib and trematinib) across nasopharyngeal and gastric cancer cell lines (with drug concertation ranging from 0.1 μM-5 μM). […] In the next set of experiments, we wanted to determine the impact of MEK1/2 inhibition in combination with allogeneic EBV-specific T cells on EBV-associated solid cancers. As such, we treated the respective EBV-associated cell lines (both gastric and nasopharyngeal) individually or in combination with MEK1/2 inhibitors (both selumetanib and trematinib) and EBV-specific T cells.
Similarly, we targeted MYC-dependent cancer intrinsic pathway using JQ1 inhibitor by first determining the IC50 value of the inhibitor across nasopharyngeal and gastric cancer cell lines (with drug concertation ranging from 0.5 μM-10 μM). […] To characterized the impact of JQ1 inhibition in combination with allogeneic EBV-specific T cells on EBV-associated cancer cells, we used IC25 value JQ1 (2.5 μM) alongside an effector to target ratio of 25:1 of the respective HLA matched allogeneic EBV-specific T cells in vitro. […] We also performed phenotypic characterization, using flow cytometry, of SNU719 and C666.1 cells after 16 hours of individual and dual treatment in vitro.

Row | Molecule | SNU719 gastric cancer outgrowth ([1]; Nivolumab 24 hrs after T cell infusion, combination vs monotherapy and mock-treated groups, p<0.0001) | tumour size (tumour weight) ([1]; combination with T cells vs monotherapy groups) | survival post therapy ([1]; combination with T cells vs monotherapy or mock-treated group, p<0.0001) | better survival in comparison to only T cell treated group ([1]; combination with T cells, p<0.01) | pIC50 ([2]; 48 h, read-out: IC50 (~50% reduction in cell viability)) | IC25 value (sub IC50 value) ([2]; concentration chosen for in vitro combination treatment)
1 | Nivolumab: anti-PD1 antibody | significantly reduced | significantly reduced tumour size | significantly improved | ~2 fold |  | 
2 | CC(=O)Nc1cccc(-n2c(=O)n(C3CC3)c(=O)c3c(Nc4ccc(I)cc4F)n(C)c(=O)c(C)c32)c1 [trematinib] |  |  |  |  | ~5.60 | 1000 nM
